Measurements from publication PMC12254355 (Nature Communications, 2025).
Ends that are not written are not given here.

Key:
[1] = test system: P. aeruginosa PAO1; conditions: PAO1, 24 h
[2] = test system: E. faecium ATCC 700221 - VRE; conditions: ATCC 700221, 24 h
[3] = test system: HEK293T cells; conditions: for CC50 vs HEK293T cells (source data of Figure 4a): 24 h
[4] = test system: human red blood cells; conditions: pH 7.4
[5] = test system: E. coli AIC221; conditions: AIC221, 24 h

Row | Molecule | Minimal Inhibitory Concentration, P. aeruginosa PAO1 (-) [1] [µmol/L] | Minimal Inhibitory Concentration, E. faecium ATCC 700221 - VRE (+) [2] [µmol/L] | SIcytotoxicity [3] | HC50 [4] | CC50 vs HEK293T cells (source data of Figure 4a) [3] [µM] | Minimal Inhibitory Concentration, E. coli AIC221 (-) [5] [µmol/L] | CC50 vs HEK293T cells [3] [µM]
1 | CC(C)C[C@H](NC(=O)[C@H](Cc1ccccc1)NC(=O)CNC(=O)[C@H](CCCNC(=N)N)NC(=O)[C@H](CCCNC(=N)N)NC(=O)[C@H](CCC(N)=O)NC(=O)[C@H](Cc1c[nH]c2ccccc12)NC(=O)[C@H](CC(C)C)NC(=O)[C@@H]1CCCN1C(=O)[C@H](CO)NC(=O)[C@H](C)NC(=O)[C@H](CCCNC(=N)N)NC(=O)CNC(=O)[C@H](CCCNC(=N)N)NC(=O)[C@@H](N)CCCCN)C(=O)N[C@@H](CO)C(=O)N[C@@H](CCCCN)C(=O)N[C@@H](CC(C)C)C(=O)N[C@@H](CCCCN)C(=O)N[C@@H](C)C(=O)N[C@@H](CCCNC(=N)N)C(=O)N[C@@H](C)C(=O)N[C@@H](CCCCN)C(=O)N[C@@H](CCCNC(=N)N)C(=O)N[C@@H](CC(N)=O)C(=O)NCC(=O)N[C@@H](C)C(=O)N[C@@H](Cc1ccccc1)C(=O)N[C@@H](Cc1c[nH]cn1)C(=O)N[C@@H](CC(C)C)C(=O)N1CCC[C@H]1C(=O)N[C@@H](CCCNC(=N)N)C(=O)O [Conoserver-7] | 64 | 32 | 2.5 | 1.085e+083 |  |  | 
2 | KRRRASPLWKRRRFLSMLKARAK [UniprotKB-10] |  | 32 | 1.3 | 627.2 | 43.12 |  | 
3 | RKRRRFISMLKARAKRR [Conoserver-15] |  | 32 | 0.7 | 1.085e+083 | 22.52 |  | 
4 | RQEYPTKRLRAKMLNSKFIKLIKR [Conoserver-12] |  | 16 | 5.8 | 1.085e+083 |  | 32 | 
5 | RHRIVRTYIAKFGLK [ISOB-2] |  | 32 | 7.5 | 1.085e+083 |  | 64 | 
6 | PLWKRRRFLSMLKARAKR [Conoserver-4] | 64 | 32 | 2.6 | 707.7 |  |  | 
7 | KQKYLIKRSRAKMQNHKLFKLTKR [Conoserver-16] |  | 64 | 1.5 | 1.085e+083 |  |  | 
8 | KRKGYLRLVPEERIWQKGLWWLRRLETDSDKLQK [ISOB-3] |  |  |  | 1.085e+083 |  |  | 
9 | KLWNSKLARKIRTKGLKYVKNFAK [UniprotKB-3] |  | 32 | 1.5 | 8.23e+034 | 11.61 |  | 
10 | LTKWLGKLGVIL [UniprotKB-11] |  |  | 4.4 | 146.7 |  |  | 
11 | LRAKMLNSKFIKL [Conoserver-5] |  |  |  | 1.085e+083 |  |  | 
12 | RLRAKMRNSKLFKLTKR [Conoserver-10] |  |  |  | 1.085e+083 |  |  | 
13 | KRRRASPLWKRRRFLSMLKARAK [Conoserver-2] | 64 | 32 | 3.6 | 1570.0 |  |  | 
14 | KKQIRLYLLKYYGKKSSSKSVRKIVISK [Arachnoserver-20] |  | 32 | 2.8 | 896.7 |  |  | 
15 | GKWLISSLVAKHL [UniprotKB-6] |  |  | 0.3 | 686.0 | 19.46 |  | 19
16 | KRLKGFAKKLWNSKLARKIRTKGLKYVKNFAK [UniprotKB-7] |  | 8 | 3.7 | 207.9 | 14.78 |  | 
